Source: patent US20180153995A1, “USE OF ANTIMICROBIAL POLYMERS FOR RE-SENSITIZATION OF MICROORGANISMS UPON EMERGENCE OF RESISTANCE TO ANTI-MICROBIAL AGENTS” (Technion Research & Development Foundation Limited, priority 2008, published 2018)
Values joined by “and” are separate entries in the source; they are usually repeats but may differ in a detail not shown here. Identical values can stand only once. Like-named read-outs stand apart in the source and are kept apart here.

Tests used:
[1] = test system: P. aeruginosa 8732; test: Antibiotic MIC by microdilution with or without sub-MIC polymer; type: cell-based, Pseudomonas aeruginosa
Method: (§1) MICs were determined by microdilution susceptibility testing in 96-well plates (by Nunc) using inocula of 10^5 bacteria per ml. Cell populations were evaluated by optical density measurements at 620 nm and were calibrated against a set of standards. Hundred (100) μl of a bacterial suspension were added to 100 μl of culture medium (control) or to 100 μl of culture medium containing various polymer concentrations in 2-fold serial dilutions. Inhibition of proliferation was determined by optical density measurements at 620 nm after an incubation period of 24 hours at 37° C.
Inhibition of proliferation was determined by optical density measurements at 620 nm after an incubation period of 24 hours at 37° C.

[2] = test system: P. mirabilis 1285; type: cell-based, Proteus mirabilis; conditions: no polymer (None), Table 12
Method: as §1
100 μl of a bacterial suspension were added to 100 μl of culture medium (control) or to 100 μl of culture medium containing various antibiotic and C14(9-ene)KKNC12KNH2 (SEQ ID NO: 5) concentrations in 2-fold serial dilutions. Inhibition of proliferation was determined by optical density measurements at 620 nm after an incubation period of 24 hours at 37° C.

[3] = test system: MRSA 15852; type: cell-based, Staphylococcus aureus; conditions: S. aureus 15852
Method: The fractionary inhibitory (FIC) concentration index for combinations of two antimicrobial agents was calculated as follows: FIC index=FICA+FICB=A/MICA+B/MICB where A and B are the MIC values of agent A and agent B in the combination, MICA and MICB are the MICs of agent A and agent B alone, and FICA and FICB are the FICs of agent A and agent B.
The FIC indexes were interpreted as follows: less than 0.5 indicates a clear re-sensitizing effect; from 0.5 to 4 indicates a marginal or null re-sensitizing effect; and over 4 indicates antagonism.

[4] = test system: E. coli AG100/ks; test: Antibiotic MIC with or without sub-MIC polymer (Tables 20, 21); type: cell-based, Escherichia coli
[5] = test system: P. mirabilis 1285; type: cell-based, Proteus mirabilis
[6] = test system: E. coli AG100; test: Antibiotic MIC with or without sub-MIC polymer (Tables 20, 21); type: cell-based, Escherichia coli
[7] = test system: S. aureus 43300; test: Antibiotic MIC by microdilution with or without sub-MIC polymer; type: cell-based, Staphylococcus aureus
[8] = test system: S. aureus 15819; test: as above; type: cell-based, Staphylococcus aureus
Method: MICs were determined by microdilution susceptibility testing in 96-well plates (Nunc) using inocula of 10^5 bacteria per ml. One hundred (100) μl of a bacterial suspension were added to 100 μl of culture medium (control) or to 100 μl of culture medium containing various antibiotic and C12(5-ene)KKNC12KNH2 (SEQ ID NO: 2) concentrations in 2-fold serial dilutions. Inhibition of proliferation was determined by optical density measurements at 620 nm after an incubation period of 24 hours at 37° C.

[9] = P. aeruginosa 8732, no polymer (None), Table 10
[10] = +¼ MIC (1.6 μM) C12(5-ene)KKNC12KNH2
[11] = +½ MIC (3.12 μM) C12(5-ene)KKNC12KNH2
[12] = +⅓ MIC (2.1 μM) C12(5-ene)KKNC12KNH2
[13] = +¼ MIC (1.6 μM) C12K(KNC12K)2NH2
[14] = +½ MIC (3.12 μM) C12K(KNC12K)2NH2
[15] = +⅓ MIC (2.1 μM) C12K(KNC12K)2NH2
[16] = +¼ MIC (1.6 μM) C16(9-ene)KKNC12KNH2
[17] = +½ MIC (3.12 μM) C16(9-ene)KKNC12KNH2
[18] = +⅓ MIC (2.1 μM) C16(9-ene)KKNC12KNH2
[19] = S. aureus 15819, +½ MIC (3.12 μM) C12K(KNC12K)3NH2
[20] = S. aureus 15819, +⅓ MIC (2.1 μM) C12K(KNC12K)3NH2
[21] = S. aureus 15819, no polymer (None), Table 8
[22] = S. aureus 15819, no polymer (None), Table 11
[23] = S. aureus 15819, no polymer (None), Table 13

For CCN1CCN(C(=O)N[C@@H](C(=O)N[C@@H]2C(=O)N3[C@@H]2SC(C)(C)[C@@H]3C(=O)O)c2ccccc2)C(=O)C1=O [Piperacillin, piperacillin], the “Antibiotic MIC” value [1] was 256 µg/mL, the “Antibiotic MIC” value ([1]; P. aeruginosa 8732, +½ MIC (3.12 μM) C16(9-ene)KKNC12KNH2) was 256 µg/mL and the “Antibiotic MIC” value ([1]; P. aeruginosa 8732, +⅓ MIC (2.1 μM) C16(9-ene)KKNC12KNH2) was 256 µg/mL. For the same molecule, the “Antibiotic MIC” value [1, 9] was 256 µg/mL, the “Antibiotic MIC” value [2] was 512 µg/mL and the “Antibiotic MIC” value [3, 10] was 128 µg/mL. For the same molecule, the “Antibiotic MIC” value ([3]; +¼ MIC (1.6 μM) C12KKNC12KNH2) was 256 µg/mL, the “Antibiotic MIC” value [3, 11] was 128 µg/mL and the “Antibiotic MIC” value ([3]; +½ MIC (3.12 μM) C12KKNC12KNH2) was 256 µg/mL. The “Antibiotic MIC” value [3, 12] was 128 µg/mL, the “Antibiotic MIC” value ([3]; +⅓ MIC (2.1 μM) C12KKNC12KNH2) was 256 µg/mL and the “Antibiotic MIC” value ([3]; no polymer (None), Table 8) was 128 µg/mL. For the same molecule, the “Antibiotic MIC” value ([3]; no polymer (None), Table 11) was 256 µg/mL, the “Antibiotic MIC, None” value ([4]; antibiotic alone (Table 20)) was greater than 512 µg/mL and the “Antibiotic MIC, None” value ([4]; antibiotic alone (Table 21)) was greater than 512 µg/mL. The “Antibiotic MIC in presence of C12K(NC8K)5NH2 (SEQ ID NO: 3), +¼ MIC” value ([4]; polymer at ¼ of its MIC) was greater than 512 µg/mL, the “Antibiotic MIC in presence of C12K(NC8K)7NH2 (SEQ ID NO: 4), +¼ MIC” value ([4]; polymer at ¼ of its MIC) was greater than 512 µg/mL and the “Antibiotic MIC in presence of C12K(NC8K)5NH2 (SEQ ID NO: 3), +½ MIC” value ([4]; polymer at ½ of its MIC) was >512-512 μg/ml. The “Antibiotic MIC in presence of C12K(NC8K)7NH2 (SEQ ID NO: 4), +½ MIC” value ([4]; polymer at ½ of its MIC) was >512-512 μg/ml, the “Antibiotic MIC in presence of C12K(NC8K)5NH2 (SEQ ID NO: 3), +⅓ MIC” value ([4]; polymer at ⅓ of its MIC) was greater than 512 µg/mL and the “Antibiotic MIC in presence of C12K(NC8K)7NH2 (SEQ ID NO: 4), +⅓ MIC” value ([4]; polymer at ⅓ of its MIC) was greater than 512 µg/mL. The “Antibiotic MIC” value [5, 13] was 512 µg/mL, the “Antibiotic MIC” value [5, 14] was 512 µg/mL and the “Antibiotic MIC” value [5, 15] was 512 µg/mL. For the same molecule, the “Antibiotic MIC, None” value ([6]; antibiotic alone (Table 20)) was 2 µg/mL, the “Antibiotic MIC, None” value ([6]; antibiotic alone (Table 21)) was 2 µg/mL and the “Antibiotic MIC in presence of C12K(NC8K)5NH2 (SEQ ID NO: 3), +¼ MIC” value ([6]; polymer at ¼ of its MIC) was 1 to 2 µg/mL. The “Antibiotic MIC in presence of C12K(NC8K)7NH2 (SEQ ID NO: 4), +¼ MIC” value ([6]; polymer at ¼ of its MIC) was 2 µg/mL, the “Antibiotic MIC in presence of C12K(NC8K)5NH2 (SEQ ID NO: 3), +½ MIC” value ([6]; polymer at ½ of its MIC) was 0.5 µg/mL and the “Antibiotic MIC in presence of C12K(NC8K)7NH2 (SEQ ID NO: 4), +½ MIC” value ([6]; polymer at ½ of its MIC) was 0.5 µg/mL. The “Antibiotic MIC in presence of C12K(NC8K)5NH2 (SEQ ID NO: 3), +⅓ MIC” value ([6]; polymer at ⅓ of its MIC) was 1 µg/mL, the “Antibiotic MIC in presence of C12K(NC8K)7NH2 (SEQ ID NO: 4), +⅓ MIC” value ([6]; polymer at ⅓ of its MIC) was 1 µg/mL and the “Antibiotic MIC” value [7, 10] was 4 µg/mL. The “Antibiotic MIC” value [7, 13] was 32 µg/mL, the “Antibiotic MIC” value ([7]; +¼ MIC (1.6 μM) C12KKNC12KNH2) was 32 µg/mL and the “Antibiotic MIC” value [7, 16] was 4 µg/mL. The “Antibiotic MIC” value ([7]; +½ MIC (3.12 μM) C12KKNC12KNH2) was 8 µg/mL, the “Antibiotic MIC” value [7, 17] was 2 µg/mL and the “Antibiotic MIC” value [7, 12] was 4 µg/mL. The “Antibiotic MIC” value [7, 15] was 32 µg/mL, the “Antibiotic MIC” value ([7]; +⅓ MIC (2.1 μM) C12KKNC12KNH2) was 16 µg/mL and the “Antibiotic MIC” value [7, 18] was 4 µg/mL. For the same molecule, the “Antibiotic MIC” value ([8]; S. aureus 15819, +¼ MIC (1.6 μM) C12(5-ene)KKNC12KNH2) was 8 to 16 µg/mL, the “Antibiotic MIC” value ([8]; S. aureus 15819, +¼ MIC (1.6 μM) C12KKNC12KNH2) was 16 µg/mL and the “Antibiotic MIC” value ([8]; S. aureus 15819, +½ MIC (3.12 μM) C12(5-ene)KKNC12KNH2) was 4 µg/mL. The “Antibiotic MIC” value [8, 19] was 4 µg/mL, the “Antibiotic MIC” value ([8]; S. aureus 15819, +½ MIC (3.12 μM) C12KKNC12KNH2) was 4 µg/mL and the “Antibiotic MIC” value ([8]; S. aureus 15819, +⅓ MIC (2.1 μM) C12(5-ene)KKNC12KNH2) was 8 µg/mL. The “Antibiotic MIC” value [8, 20] was 4 µg/mL, the “Antibiotic MIC” value ([8]; S. aureus 15819, +⅓ MIC (2.1 μM) C12KKNC12KNH2) was 8 to 16 µg/mL and the “Antibiotic MIC” value [8, 21] was 16 µg/mL. For the same molecule, the “Antibiotic MIC” value [8, 22] was 32 µg/mL and the “Antibiotic MIC” value [8, 23] was 32 µg/mL.
O=C(O)c1cn(C2CC2)c2cc(N3CCNCC3)c(F)cc2c1=O [Ciprofloxacin, ciprofloxacin] was tested, and the “Antibiotic MIC” value [1, 9] was less than 0.03 µg/mL, the “Antibiotic MIC” value [2] was 32 µg/mL and the “Antibiotic MIC” value [3, 10] was 16 µg/mL. For the same molecule, the “Antibiotic MIC” value ([3]; +¼ MIC (1.6 μM) C12KKNC12KNH2) was 32 µg/mL, the “Antibiotic MIC” value [3, 11] was 16 µg/mL and the “Antibiotic MIC” value ([3]; +½ MIC (3.12 μM) C12KKNC12KNH2) was 32 µg/mL. For the same molecule, the “Antibiotic MIC” value [3, 12] was 16 µg/mL, the “Antibiotic MIC” value ([3]; +⅓ MIC (2.1 μM) C12KKNC12KNH2) was 32 µg/mL and the “Antibiotic MIC” value ([3]; no polymer (None), Table 8) was 16 µg/mL. For the same molecule, the “Antibiotic MIC” value ([3]; no polymer (None), Table 11) was 32 µg/mL, the “Antibiotic MIC” value [5, 13] was 32 µg/mL and the “Antibiotic MIC” value [5, 14] was 8 µg/mL. For the same molecule, the “Antibiotic MIC” value [5, 15] was 16 µg/mL, the “Antibiotic MIC” value [7, 10] was 0.25 µg/mL and the “Antibiotic MIC” value ([7]; +¼ MIC (1.6 μM) C12KKNC12KNH2) was 0.5 µg/mL. The “Antibiotic MIC” value [7, 16] was 0.25 µg/mL, the “Antibiotic MIC” value [7, 14] was 0.13 to 0.25 µg/mL and the “Antibiotic MIC” value ([7]; +½ MIC (3.12 μM) C12KKNC12KNH2) was 0.25 µg/mL. The “Antibiotic MIC” value [7, 17] was 0.125 µg/mL, the “Antibiotic MIC” value [7, 12] was 0.125 µg/mL and the “Antibiotic MIC” value ([7]; +⅓ MIC (2.1 μM) C12KKNC12KNH2) was 0.5 µg/mL. For the same molecule, the “Antibiotic MIC” value [7, 18] was 0.25 µg/mL, the “Antibiotic MIC” value [8] was 0.125 µg/mL and 0.125 to 0.25 µg/mL and the “Antibiotic MIC” value ([8]; S. aureus 15819, +¼ MIC (1.6 μM) C12K(KNC12K)3NH2) was 0.125 µg/mL. For the same molecule, the “Antibiotic MIC” value [8, 19] was 0.06 µg/mL, the “Antibiotic MIC” value [8, 20] was 0.125 µg/mL and the “Antibiotic MIC” value [8, 21] was 0.125 to 0.25 µg/mL. The “Antibiotic MIC” value [8, 22] was 0.125 to 0.25 µg/mL and the “Antibiotic MIC” value [8, 23] was 0.25 µg/mL.
